“Also recorded” adds a separate entry of the source.
Columns and labels:
[1] = target: T1, cellodextrin phosphorylase from Clostridium stercorarium (CsCDP) (Thermoclostridium stercorarium, UniProt L7VUB7); assay: CsCDP activity assay (orthophosphate release, synthetic direction); format: biochemical; conditions: for Specific activity (U/mg): acceptor specificity, 30 mM Glc1P donor; for Specific activity (U/mg) / Relative activity (%): 50 mM MES buffer pH 6.5, 50 mM of acceptor; for Relative activity (%): relative to cellobiose
Description: (§1) Protein concentrations were measured with the BCA Protein Assay kit from Thermo Scientific. The activity assays were performed with 5% of purified enzyme (50 μg/mL, final concentration) in 50 mM MES buffer pH 6.5, containing 30 mM donor (Glc1P) or 100 mM donor (Gal1P) and 50 mM acceptor at 45° C. Samples were inactivated for 5 minutes at 95° C. before the amount of orthophosphate (Pi) was measured by the method of Gawronski and Benson, 2004. The Km and kcat values in the kinetic study were calculated from a Hanes-Woolf plot.

[2] = target: T1, cellodextrin phosphorylase from Clostridium stercorarium (CsCDP); assay: as above; format: biochemical; conditions: 20 mM of acceptor, 45° C. and pH 6.5
[3] = target: T1, cellodextrin phosphorylase from Clostridium stercorarium (CsCDP); assay: Kinetic study of the synthetic reaction of CsCDP (Hanes-Woolf plot); format: biochemical; conditions: donor substrate instead of Glc1P
Description: as §1

[4] = substrate: CCCCCCCCO[C@@H]1O[C@H](CO)[C@@H](O)[C@H](O)[C@H]1O; assay: as above; format: biochemical, Clostridium stercorarium; conditions: other: synthetic reaction, 50 mM MES buffer pH 6.5 at 45° C.
[5] = substrate: O=[N+]([O-])c1ccc(O[C@@H]2O[C@H](CO)[C@@H](O)[C@H](O)[C@H]2O)cc1; assay: as above; format: biochemical, Clostridium stercorarium; conditions: other: synthetic reaction, 50 mM MES buffer pH 6.5 at 45° C.
[6] = substrate: O=P(O)(O)O[C@H]1O[C@H](CO)[C@@H](O)[C@H](O)[C@H]1O; assay: as above; format: biochemical, Clostridium stercorarium; conditions: other: synthetic reaction, 50 mM MES buffer pH 6.5 at 45° C.
[7] = substrate: O=P(O)(O)O[C@H]1O[C@H](CO)[C@H](O)[C@H](O)[C@H]1O; assay: as above; format: biochemical, Clostridium stercorarium; conditions: other: synthetic reaction, 50 mM MES buffer pH 6.5 at 45° C.

Row | Molecule | Specific activity (U/mg) ([1]; 45° C.) | Relative activity (%) ([1]; 45° C.) | activity of CsCDP towards the substrate (in words) [1] | other results
1 | CCCCCCO[C@@H]1O[C@H](CO)[C@@H](O)[C@H](O)[C@H]1O [Hexyl β-glucoside] | 19.9 U/mg | 89% | – | –
2 | OC[C@H]1O[C@H](O[C@H]2[C@H](O)[C@@H](O)C(O)O[C@@H]2CO)[C@H](O)[C@@H](O)[C@@H]1O (mixture of isomers) [Maltose] | 0.7 U/mg | 3% | very poor acceptors | –
3 | oleoyl β-sophoroside [Sophorolipid] | – | – | – | Activity (%) relative to the activity on cellobiose ([2]; donor 30 mM Glc1P): 36%; activity as fraction of that on cellobiose ([1]; Table 4): about one third
4 | CO[C@@H]1O[C@H](CO)[C@@H](O)[C@H](O)[C@H]1O [Methyl β-glucoside] | 3.5 U/mg | 16% | – | –
5 | O=P(O)(O)O[C@H]1O[C@H](CO)[C@H](O)[C@H](O)[C@H]1O [Gal1P, α-galactose-1-phosphate] | – | – | active | efficiency on Gal1P as donor, times lower than on Glc1P [3]: about one thousand
6 | Lactose | – | – | absolutely no activity could be detected; also recorded: inactive | –
7 | O=[N+]([O-])c1ccc(O[C@@H]2OC[C@@H](O)[C@H](O)[C@H]2O)cc1 [PNP β-xyloside] | 7.5 U/mg | 33% | – | –
8 | CCCCCCCCO[C@@H]1O[C@H](CO)[C@@H](O)[C@H](O)[C@H]1O [Octyl β-glucoside] | 20.4 U/mg | 91% | – | –
9 | cellobiose | 22.4 U/mg | 100% | – | Activity (%) relative to the activity on cellobiose ([2]; donor 30 mM Glc1P): 100%
10 | O=[N+]([O-])c1ccc(O[C@@H]2O[C@H](CO)[C@@H](O[C@@H]3O[C@H](CO)[C@@H](O)[C@H](O)[C@H]3O)[C@H](O)[C@H]2O)cc1 [PNP β-cellobioside] | 29.0 U/mg | 129% | – | –
11 | oleoyl β-glucoside | 29.3 U/mg | 131% | better acceptors for CDP than cellobiose | Activity (%) relative to the activity on cellobiose ([2]; donor 30 mM Glc1P): 126%; Activity (%) relative to the activity on cellobiose ([2]; donor 100 mM Gal1P): 11%
12 | OC[C@H]1O[C@@](CO)(O[C@H]2O[C@H](CO)[C@@H](O)[C@H](O)[C@H]2O)[C@@H](O)[C@@H]1O [Sucrose] | 0.7 U/mg | 3% | very poor acceptors | –
13 | O=[N+]([O-])c1ccc(O[C@@H]2O[C@H](CO)[C@@H](O)[C@H](O)[C@H]2O)cc1 [PNP β-glucoside, p-nitrophenyl beta-glucoside] | 24.7 U/mg | 110% | – | –
14 | CsCDP: recombinant cellodextrin phosphorylase from Clostridium stercorarium DSM8532, Genbank U60580 (protein, listed as Clostridium stercorarium) MRYGYFDEKAREYVITRPDTPTPWINYIGNGKYGGIVTNTGGGYSFHKDPQNRRITRYRYNNLPTDRPGRYIYVRDRLTGEYWNPGYQPVQRKLDSYRCRHGMGYTVLEGEYKGIAADVTYFVPDDRDFEIWLVQIRNLCHVERNLQVFSYAEFCFWDAIMDQQNVDWVQQINQGRYEDRLITWHPHHFKDACAFFATNAEINSFDTNLEAFIGRYRCESNPIAVETGACSNSVSYRMNGVGAFCIDVNLKPGEEREIIFILGFTENKSTIRDEIRDYLNVEYAKEALKRLKDSWEEYLDKLQIETPDRETNLFVNTWNQYQCKITFNWSRFVSMYSWGLGRGIGIRDSAQDTLGVMHSIPELAGGLIKRLIHCQYTDGRVYHLFFPLTGEGGIGDAPVVKFDWYSDDHLWLPIAANAYLKETANFDFFQSVVPYNDNKTEGTVWEHLNRAMEFTYNHRGPHALPYSRADWNDTLNLDMGNGIAETLFTSMLFSEPPLKRFRCRISDKRIATKYRYWYDEMKQAINEWCWDGEWYIRAFDDEGNVLGSGKNRYGKIFINSQSWAVLSMVAPEEYAKKCLESVYRHLNTKYGIVKVYPAYPEYNPKIGGMTTYPPGAKENGGIFAHTNPWVMIAECMMGNGRRAYQYYRQILPLTRNDDADLLEVEPYVYCQNILGKEHPQFGIGRNSWLTGTAAWNMVAVSQYILGIRPEYDGLTVDPCIPPDWKGFKVRRIFRGCVYNIEVRNPEGVRRCEKNCRRGVETDKIPVKPAGTVCECVVIMG | – | – | – | optimal temperature for activity in the direction of glycoside synthesis ([1]; 50 mM cellobiose, 30 mM Glc1P, 50 mM MES buffer pH 6.5): ~65 °C; optimal pH for activity in the direction of glycoside synthesis ([1]; 50 mM cellobiose, 30 mM Glc1P, 50 mM MES buffer, 45° C.): around 6.5; specific activity of the purified enzyme ([1]; His6-tagged purified CsCDP, cellobiose acceptor): 22.4 U/mg
15 | cellodextrin phosphorylase from Clostridium stercorarium (CsCDP) (Thermoclostridium stercorarium subsp. stercorarium DSM 8532) (protein) MRYGYFDEKAREYVITRPDTPTPWINYIGNGKYGGIVTNTGGGYSFHKDPQNRRITRYRYNNLPTDRPGRYIYVRDRLTGEYWNPGYQPVQRKLDSYRCRHGMGYTVLEGEYKGIAADVTYFVPDDRDFEIWLVQIRNLCHVERNLQVFSYAEFCFWDAIMDQQNVDWVQQINQGRYEDRLITWHPHHFKDACAFFATNAEINSFDTNLEAFIGRYRCESNPIAVETGACSNSVSYRMNGVGAFCIDVNLKPGEEREIIFILGFTENKSTIRDEIRDYLNVEYAKEALKRLKDSWEEYLDKLQIETPDRETNLFVNTWNQYQCKITFNWSRFVSMYQLGLGRGIGIRDSAQDTLGVMHSIPELAGGLIKRLIHCQYTDGRVYHLFFPLTGEGGIGDAPVVKFDWYSDDHLWLPIAANAYLKETANFDFLESVVPYNDNKTEGTVWEHLNRAMEFTYNHRGPHGLALIGRADWNDTLNLDMGNGIAESVFTSMLFCRAALEMIQMAEYTGQKDLATKYRYWYDEMKKAINEWCWDGEWYIRAFDDEGNVLGSGKNRYGKIFINSQSWAVLSMVAPEEYAKKCLESVYRHLNTKYGIVKVYPAYPEYNPKIGGMTTYPPGAKENGGIFAHTNPWVMIAECMMGNGRRAYQYYRQILPLTRNDDADLLEVEPYVYCQNILGKEHPQFGIGRNSWLTGTAAWNMVAVSQYILGIRPEYDGLTVDPCIPPDWKGFKVRRIFRGCVYNIEVRNPEGVSRGVKKIVVDGVETDKIPVKPAGTVCECVVIMG | – | – | – | Km [4]: 623 ± 26 µM; kcat [4]: 14.2 ± 0.5 s⁻¹; kcat/Km [4]: 20000 M⁻¹ s⁻¹; Km [5]: 640 ± 38 µM; kcat [5]: 19.6 ± 1 s⁻¹; kcat/Km [5]: 30000 M⁻¹ s⁻¹; Km [6]: 2438 ± 16 µM; kcat [6]: 27.4 ± 1.7 s⁻¹; kcat/Km [6]: 10000 M⁻¹ s⁻¹; Km [7]: 31130 ± 683 µM; kcat [7]: 2.5 ± 0.1 s⁻¹; kcat/Km [7]: 100 M⁻¹ s⁻¹
